Patent EP0293500A1, “3-heteroalkyl-2,4.quinzaoline-diones” (AMERICAN CYANAMID COMPANY, priority 1987, dated 1988)

How the values were obtained:
thromboxane synthetase = biological target: T1, thromboxane synthetase (Rattus norvegicus, UniProt P49430); test: Inhibition of thromboxane (TX) formation (TXB2 radioimmunoassay) in washed rat platelets; assay type: cell-based, Okamoto-Aoki spontaneously hypertensive rats (SHR); settings: percent inhibition of TXB2 formation; drug at 10^-4M; SHR platelet suspension, 10 minutes at 37 C
T1 construct: The platelets were isolated by centrifuging the PRP for 10 minutes at 1060xg; from tissue; host or cells: washed blood platelets from Okamoto-Aoki spontaneously hypertensive rats (SHR)
T1 sequence (P49430 1-533): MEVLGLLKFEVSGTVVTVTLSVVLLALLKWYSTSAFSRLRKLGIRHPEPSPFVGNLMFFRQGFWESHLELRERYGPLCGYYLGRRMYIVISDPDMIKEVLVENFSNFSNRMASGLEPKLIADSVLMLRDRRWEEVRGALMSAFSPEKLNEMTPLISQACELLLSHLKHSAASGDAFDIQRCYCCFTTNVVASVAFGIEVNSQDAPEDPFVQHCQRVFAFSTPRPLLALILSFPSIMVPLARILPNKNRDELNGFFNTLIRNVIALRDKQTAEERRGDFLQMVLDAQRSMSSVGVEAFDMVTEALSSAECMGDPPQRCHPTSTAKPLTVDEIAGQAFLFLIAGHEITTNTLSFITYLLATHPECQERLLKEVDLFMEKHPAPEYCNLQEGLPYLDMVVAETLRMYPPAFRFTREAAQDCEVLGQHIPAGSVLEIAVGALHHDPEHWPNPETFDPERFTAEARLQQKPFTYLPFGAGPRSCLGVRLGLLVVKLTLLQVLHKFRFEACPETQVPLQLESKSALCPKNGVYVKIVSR
Description: The platelet rich plasma (PRP) was separated. […] The inhibition of thromboxane (TX) formation was studied by determing the concentration of thromboxane […] (TXB2), the stable hydrolysis product of TXA2.

[1] = tested on: spontaneously hypertensive rats of the Okamoto strain; test: Hypotensive activity in spontaneously hypertensive rats (method of Chan and Poorvin); assay type: in vivo; settings: male SHR, average MABP 160±1.5 mm of mercury; gavage, 100 mg/kg or less, second identical dose 24 hours later; MABP at 28 hours after the initial dose; number of rats in brackets
Description: The novel compounds of the present invention are also active hypotensive agents and were tested for hypotensive activity by the method of P. S. Chan and b. Poorvin, Clinical and Experimental Hypertension, 1 (6), 817-830 (1979). Male, 16 week old, spontaneously hypertensive rats of the Okamoto strain, from Taconic Farms, Germantown, New York having an average mean arterial blood pressure of 160±1.5 mm of mercury were used in the test. […] A second identical dose of the test compound, without sodium chloride loading is given 24 hours later. At 28 hours after the initial dose, the mean arterial blood pressure (MABP) is measured by the method of Chan and Poorvin vide supra. The procedure is repeated in a second and third rat when necessary. The results of this test on representative compounds of the present invention appear in Table II below.

Structure (SMILES) | inhibition at 100 µM (thromboxane synthetase) [%] | MABP/mm Hg (no. of rats) [1]
O=c1c2cc(Cl)ccc2nnn1CCCCCCCCn1ccnc1 [6-Chloro-3-[8-(1H-imidazol-1-yl)octyl]-1,2,3-benzotriazin-4(3H)-one, monohydro-chloride] | 90 | 116(2) mm Hg
O=c1[nH]c2ccccc2c(=O)n1CCCn1ccnc1 [Example 10, 3-[3-(1 H-Imidazol-1-yl)propyl]-2,4-(1H,3H)-quinazolinedione] | 76 | 131(3) mm Hg
O=c1[nH]c2ccccc2c(=O)n1CCCCn1ccnc1 [Example 11, 3-[4-(1H-Imidazol-1-yl)butyl]-2,4(1H,3H)-quinazolinedione] | 100 | 108(2) mm Hg
O=c1[nH]c2ccc(Br)cc2c(=O)n1CCCCn1ccnc1 [Example 12, 6-Bromo-3-[4-(1H-imidazol-1-yl)butyl]-2,4(1H,3H)-quinazolinedione] | 98 | 107(2) mm Hg
Cc1ccc2[nH]c(=O)n(CCC(C)n3ccnc3)c(=O)c2c1 (centres unmarked) [Example 17, 3-[3-(1H-Imidazol-1-yl)butyl]-6-methyl-2,4(1H,3H)-quinazolinedione] | 88 | 111(2) mm Hg
O=c1[nH]c2ccccc2c(=O)n1CCCCCn1ccnc1 [Example 18, 3-[5-(1 H-Imidazol-1-yl)pentyl]-2,4(1H,3H)-quinazolinedione] | 98 | 104(2) mm Hg
Cc1cn(CCCn2c(=O)[nH]c3ccccc3c2=O)cn1 [Example 19, 3-[3-(4-Methyl-1H-imidazol-1-yl)propyl]-2,4(1H,3H)-quinazolinedione] | 98 | 135(3) mm Hg
CC(CCn1c(=O)[nH]c2ccccc2c1=O)n1ccnc1 (centres unmarked) [Example 20, 3-[3-(1H-Imidazol-1-yl)butyl]-2,4(1H,3H)-quinazolinedione] | 100 | 121(3) mm Hg
CC(Cn1ccnc1)Cn1c(=O)[nH]c2ccccc2c1=O (centres unmarked) [Example 21, 3-[3-(1H-Imidazol-1-yl)-2-methylpropyl]-2,4(1H,3H)-quinazolinedione] | 100 | 112(2) mm Hg

Continued, in another order:

inhibition at 100 µM (thromboxane synthetase) [%] | Structure (SMILES) | MABP/mm Hg (no. of rats) [1]
93 | O=c1[nH]c2ccc(Cl)cc2c(=O)n1CCCCn1ccnc1 [Example 24, 6-Chloro-3-[4-(1H-imidazol-1-yl)butyl]-2,4(1H,3H)-quinazolinedione] | 106(2) mm Hg
99 | Cc1cn(CCCn2c(=O)[nH]c3ccc(Cl)cc3c2=O)cn1 [Example 26, 6-Chloro-3-[3-(4-methyl-1H-imidazol-1-yl)-propyl]-2,4(1H,3H)-quinazolinedione] | 125(3) mm Hg
70 | Cc1cn(CCCCn2c(=O)[nH]c3ccc(Cl)cc3c2=O)cn1 [Example 28, 6-Chloro-3-[4-(4-methyl-1H-imidazol-1-yl)butyl]-2,4(1H,3H)-quinazolinedione] | 118(2) mm Hg
98 | CC(CCn1c(=O)[nH]c2ccc(Cl)cc2c1=O)n1ccnc1 (centres unmarked) [Example 30, 6-Chloro-3-[3-(1H-imidazol-1-yl)-butyl]-2,4(1H,3H)-quinazolinedione] | 113(2) mm Hg
100 | CC(Cn1ccnc1)Cn1c(=O)[nH]c2ccc(Cl)cc2c1=O (centres unmarked) [Example 31, 6-Chloro-3-[3-(1H-imidazol-1-yl)-2-methylpropyl]-2,4(1H,3H)-quinazolinedione] | 126(3) mm Hg
59 | O=c1[nH]c2cc(Cl)ccc2c(=O)n1CCCCn1ccnc1 [Example 40, 7-Chloro-3-[4-(1H-imidazol-1-yl)butyl]-2,4(1H,3H)-quinazolinedione] | 102(2) mm Hg
51 | CC(CCn1c(=O)[nH]c2cc(Cl)ccc2c1=O)n1ccnc1 (centres unmarked) [Example 41, 7-Chloro-3-[3-(1H-imidazol-1-yl)butyl]-2,4(1H,3H)-quinazolinedione] | 128(2) mm Hg
